From patent US20080076751A1, “Azetidinone Derivatives and Methods of Use Thereof” (priority 2006, published 2008)

What was measured:
[1] = molecular target: T1, TRPV1 (VR1) (Rattus norvegicus, UniProt O35433); test: TRPV1 screening assay (FLIPR, Fluo-4 calcium), capsaicin stimulation; assay type: cell-based; conditions: FLIPR, HEK293-TetOFF-TRPV1, capsaicin 50 nM final; read-out: VR1 flipr CAPSAICIN IC50
T1 construct: expressed in transfected cells; host or cells: HEK293-TetOFF, expression induced by withdrawing doxycycline
T1 sequence (O35433 whole entry): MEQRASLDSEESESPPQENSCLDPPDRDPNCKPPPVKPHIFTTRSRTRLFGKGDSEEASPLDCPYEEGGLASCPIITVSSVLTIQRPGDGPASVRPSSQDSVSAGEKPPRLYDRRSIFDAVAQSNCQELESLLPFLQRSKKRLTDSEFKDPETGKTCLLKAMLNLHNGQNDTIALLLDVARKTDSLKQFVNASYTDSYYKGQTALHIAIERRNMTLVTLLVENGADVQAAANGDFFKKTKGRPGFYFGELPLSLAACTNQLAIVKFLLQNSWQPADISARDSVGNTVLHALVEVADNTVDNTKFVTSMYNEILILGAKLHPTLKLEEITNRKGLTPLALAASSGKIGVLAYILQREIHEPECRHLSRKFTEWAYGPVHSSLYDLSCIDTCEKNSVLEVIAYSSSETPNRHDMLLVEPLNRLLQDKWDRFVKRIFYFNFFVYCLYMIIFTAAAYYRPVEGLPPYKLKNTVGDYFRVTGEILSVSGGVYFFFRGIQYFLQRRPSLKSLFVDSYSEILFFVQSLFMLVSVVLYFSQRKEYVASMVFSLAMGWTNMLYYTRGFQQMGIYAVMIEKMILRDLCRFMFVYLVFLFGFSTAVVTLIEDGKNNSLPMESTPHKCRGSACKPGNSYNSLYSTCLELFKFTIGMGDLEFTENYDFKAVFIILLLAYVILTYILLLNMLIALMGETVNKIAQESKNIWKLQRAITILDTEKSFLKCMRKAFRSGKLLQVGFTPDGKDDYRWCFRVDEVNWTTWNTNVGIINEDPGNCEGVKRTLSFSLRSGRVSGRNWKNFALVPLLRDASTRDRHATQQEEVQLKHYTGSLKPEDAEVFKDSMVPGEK
Source text: (§1) • 1) Cell line: HEK293-Tet^OFF-TRPV1 • 2) Media: MEM (Invitrogen) • 3) 10% Tet-FBS (Clontech #8630-1) • 4) Fungizone (Gibe #15290-018 (100X)) • 5) Penn/Strep (Gibco #15140-122 (100X)) • 6) Geneticin (Gibco #10131-027 (100X)) • 7) Hygromycin (Clontech #8057-1) • 8) Doxycycline (Clontech #8634-1) • 9) Trypsin/EDTA (Gibco #25200-056) • 10) 100 mm cell culture plates (Falcon #3003) • 11) 96-well poly-D-lysine plates (Fisher #08-774-256) • 12) Hank's Balanced Salt Solution (HBSS) (GIBCO #14025-092) • 13) HEPES Buffer (GIBCO #15630-080) • 14) 30% BSA (Research Organics #1334A) • 15) Probenecid (Sigma P-8761) • 16) Fluo-4, AM (50 μg) (Molecular Probes F-23917) • 17) Pluronic F-127 20% (Molecular Probes P-3000). • 18) capsazepine (Sigma C-191) • 19) capsaicin (Sigma M-2028) • 20) compound plates (NUNC #442587) • 21) black pipet tips 96-well FLIPR (Robbins Scientific 1043-24-0) • 22) Additional reagents available from Fisher: methanol, DMSO, NaOH Reagent Preparation: 1) Cells: HEK293-Tet^OFF-TRPV11
(§2) • and Doxycycline 2.5 μg/mL final (from a 1000× stock in PBS) • Cells must be fed and/or split every 2-3 days (to maintain transcriptional repression with Doxycycline). • Must be split no more than 1:5 (50-75% confluency) to maintain growth and viability. • Grown on regular tissue culture plates (e.g Falcon 3003-100 mm) • Split cells via Trypsin/EDTA: incubate with trypsin at room temperature no longer than 5 minutes (HEK293 cells have a tendency to ball up if over trypsinized). • Two days prior to assay, the cells are split into 96-well plates in cell media in the absence of doxycycline at a concentration of 40,000 cells/well in a volume of 200 μL. 2) FLIPR buffer is prepared fresh:
Add 5 mL of Probenecid Solution, prepared as follows: 710 mg of probenecid (Sigma P-8761) is solubilized in 5 mL of 1N NaOH, 5 mL of above buffer is added for final volume of 10 mL. (of which 5 mL goes back into FLIPR buffer)
Combine 42 μL of dye mixture with 11 mL of FLIPR buffer/96-well plate.
Stock solution of 0.1 M capsaicin is prepared in MeOH (50 mg+1.6 mL MeOH). Store 50 μL aliquots at −80° C.
(§3) For assay: • a) Dilute stock by adding 0.8 μL into 1 mL of MeOH (final=80 uM). • b) Add 50 μL of diluted stock to 20 mL of FLIPR buffer (final=0.2 uM) • c) Agonist solution is added 150 μL/well to 96-well plate. • d) Final agonist concentration on cells will be 50 nM. […] Laser is adjusted upwards for an average signal≧10,000/well and less than 10% variability. 7) Compound addition conditions are as follows: • FLIPR setup (dual sequence parameters): • Sequence 1: • First interval 1 sec/60 counts • Second interval 6 sec/50 counts • Fluid addition=50 μL • Pipettor height 110 μL • Dispense Speed=30 μL/sec • Sequence 2: • Second interval 1 sec/60 counts • Second interval 6 sec/40 counts • Fluid addition=50 μL • Pipettor height=140 μL • Dispense Speed=50 μL/sec Data Analysis: • 1) Data from both additions is reported as Max-Min for each well

[2] = molecular target: T1, TRPV1 (VR1); test: TRPV1 screening assay (FLIPR, Fluo-4 calcium), PMA stimulation; assay type: cell-based; conditions: HEK293-TetOFF-TRPV1, PMA
Protocol: 2) FLIPR buffer is prepared fresh:
as §3

[3] = molecular target: T2, human NPC1L1 (Homo sapiens, UniProt Q9UHC9); test: NPC1L1 binding assay (BODIPY-labeled glucuronidated ezetimibe competition), human; conditions: HEK-293 cells expressing human NPC1L1, 4 hours at 37° C.
T2 construct: expressed in transfected cells; host or cells: HEK-293 (geneticin selection)
T2 sequence (Q9UHC9 22-1359): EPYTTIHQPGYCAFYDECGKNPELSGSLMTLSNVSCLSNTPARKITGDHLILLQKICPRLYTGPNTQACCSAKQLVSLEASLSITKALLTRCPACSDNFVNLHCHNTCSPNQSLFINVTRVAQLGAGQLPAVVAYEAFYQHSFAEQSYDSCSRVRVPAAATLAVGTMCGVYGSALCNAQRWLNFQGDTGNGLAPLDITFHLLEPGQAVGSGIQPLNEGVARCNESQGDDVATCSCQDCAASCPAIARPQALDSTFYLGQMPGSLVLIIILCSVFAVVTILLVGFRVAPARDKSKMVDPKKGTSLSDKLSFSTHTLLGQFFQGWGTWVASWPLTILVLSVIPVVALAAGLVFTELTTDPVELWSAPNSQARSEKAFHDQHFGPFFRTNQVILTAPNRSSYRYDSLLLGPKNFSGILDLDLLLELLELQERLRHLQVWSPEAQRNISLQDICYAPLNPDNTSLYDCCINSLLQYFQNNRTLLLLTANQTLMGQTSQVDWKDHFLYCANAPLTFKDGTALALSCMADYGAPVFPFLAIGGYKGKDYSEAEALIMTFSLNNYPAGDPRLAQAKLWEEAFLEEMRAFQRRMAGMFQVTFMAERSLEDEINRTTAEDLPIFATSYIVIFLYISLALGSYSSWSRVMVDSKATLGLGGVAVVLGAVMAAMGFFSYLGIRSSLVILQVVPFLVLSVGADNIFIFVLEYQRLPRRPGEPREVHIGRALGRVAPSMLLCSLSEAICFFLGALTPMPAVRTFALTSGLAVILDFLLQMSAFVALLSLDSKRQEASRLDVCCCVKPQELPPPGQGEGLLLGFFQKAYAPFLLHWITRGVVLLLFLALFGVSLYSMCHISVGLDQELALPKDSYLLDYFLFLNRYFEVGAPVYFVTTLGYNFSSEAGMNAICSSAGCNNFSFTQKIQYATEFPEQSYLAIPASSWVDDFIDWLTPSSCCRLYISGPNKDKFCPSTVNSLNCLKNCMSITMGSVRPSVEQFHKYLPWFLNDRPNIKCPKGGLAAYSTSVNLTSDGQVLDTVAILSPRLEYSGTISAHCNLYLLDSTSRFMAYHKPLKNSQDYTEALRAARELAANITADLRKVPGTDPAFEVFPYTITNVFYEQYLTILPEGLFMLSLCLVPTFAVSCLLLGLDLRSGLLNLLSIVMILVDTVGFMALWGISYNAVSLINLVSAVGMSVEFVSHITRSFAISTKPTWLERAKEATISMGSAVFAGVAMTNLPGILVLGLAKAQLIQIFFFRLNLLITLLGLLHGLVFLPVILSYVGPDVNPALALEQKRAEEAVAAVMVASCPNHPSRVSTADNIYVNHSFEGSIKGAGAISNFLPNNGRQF
Protocol: HEK-293 cells expressing human NPC1L1 were plated into 384-well black/clear plates (BD Biosciences, Bedford Mass.) for binding experiments the following day. Cell growth media (DMEM, 10% fetal calf serum, 1 mg/mL geneticin, 100 Units/mL penicillin) was aspirated. Cell growth media ([…]) containing 250 nM BODIPY-labeled glucuronidated ezetimibe was added to each well. Cell growth media ([…]) containing the indicated concentration of compound was then added to the wells. Unlabeled glucuronidated ezetimibe ([…]) was used to determine nonspecific binding. The binding reaction was allowed to proceed for 4 hours at 37° C. Subsequently the cell growth media was aspirated and the cells washed once with PBS. The remaining fluorescent labeled glucuronidated ezetimibe bound to the cells was quantified using a FlexStation plate reader (Molecular Devices, Sunnyvale Calif.) to measure fluorescence intensity. Ki values were determined from competition binding curves (n=4 for each point) using Prism and Activity Base software.

[4] = molecular target: NPC1L1 (Rattus norvegicus, UniProt Q6T3U3); test: NPC1L1 binding assay (BODIPY-labeled glucuronidated ezetimibe competition), rat
[5] = molecular target: T3, rat VR1 (Rattus norvegicus, UniProt O35433); test: TRPV1 screening assay (FLIPR), rat VR1 % activation at single concentration; assay type: cell-based
T3 construct: expressed in transfected cells; host or cells: HEK293-TetOFF
T3 sequence (O35433 whole entry): as the sequence (O35433 whole entry) above
Source text: as §1, §2
For assay: • a) Dilute stock by adding 0.8 μL into 1 mL of MeOH (final=80 uM). • b) Add 50 μL of diluted stock to 20 mL of FLIPR buffer (final=0.2 uM) • c) Agonist solution is added 150 μL/well to 96-well plate. • d) Final agonist concentration on cells will be 50 nM. (˜EC80) 6) Compound Plate preparation: • a) Compound plate is filled with 150 μL/well of FLIPR buffer • b) 3 μL of compound mixtures (1 mg/mL) is added to each well (represents a 3× solution and final DMSO=0.67%) Assay Procedure: • 1) Media is removed from cells grown in 96-well dishes. • 2) 100 μL of Fluo-4 containing FLIPR buffer in pipetted into each well. • 3) Plates are incubated for 30-60 minutes at 37° C. in 5% CO2 incubator. • 4) Plates are then washed three times with 100 μL of FLIPR buffer. • 5) 100 μL of FLIPR buffer is left in each well and plate is incubated at 37° C. for at least 20 minutes. • 6) Signal of dye-labeled plate is initially determined using laser at 0.300 W with an exposure time of 0.4 seconds. Laser is adjusted upwards for an average signal≧10,000/well and less than 10% variability. 7) Compound addition conditions are as follows: • FLIPR setup (dual sequence parameters): • Sequence 1: • First interval 1 sec/60 counts • Second interval 6 sec/50 counts • Fluid addition=50 μL • Pipettor height 110 μL • Dispense Speed=30 μL/sec • Sequence 2: • Second interval 1 sec/60 counts • Second interval 6 sec/40 counts • Fluid addition=50 μL • Pipettor height=140 μL • Dispense Speed=50 μL/sec Data Analysis: • 1) Data from both additions is reported as Max-Min for each well

| IC50 [1] [nM] | IC50 [2] [nM] | Compound | also measured |
| --- | --- | --- | --- |
| 20 | 16 | O=C(Nc1ccc(C(F)(F)F)cc1)N1CCC2(CC1)C(=O)N(c1ccccn1)C2c1ccccc1 (stereo not drawn) |  |
| 80 | 59 | CC(C)(C)c1ccc(NC(=O)N2CCC3(CC2)CN(c2ccccc2)C3=O)cc1 |  |
| 98 | 81 | CCC(C)c1ccc(NC(=O)N2CCC3(CC2)C(=O)N(c2ccccc2)C3c2ccccc2)cc1 (stereo not drawn) |  |
| 315 | 205 | O=C(Nc1ccc(C(F)(F)F)cn1)N1CCC2(CC1)C(=O)N(c1ccccc1)C2c1ccccc1 (stereo not drawn) |  |
| 504 | 5 | CC(C)c1ccc(NC(=O)N2CCC3(CC2)CN(c2ccccc2)C3=O)cc1 |  |
|  |  | O=C(Nc1c(Cl)cccc1Cl)N1CCC2(CC1)C(=O)N(c1ccccc1)C2c1ccccc1 (stereo not drawn) | Ki [3]: 2120 nM; Ki [4]: 1520 nM |
|  |  | Cc1cccc(Cl)c1NC(=O)N1CCC2(CC1)C(=O)N(c1ccc(F)cc1)C2c1ccc(Cl)cc1 (stereo not drawn) | Ki [3]: 10100 nM; Ki [4]: 5950 nM |
|  |  | O=C(Nc1c(Cl)cccc1Cl)N1CCC2(CC1)C(=O)N(c1ccc(F)cc1)C2c1ccc(Cl)cc1 (stereo not drawn) | Ki [3]: 6410 nM; Ki [4]: 4840 nM |
| 7 | 7 | O=C(Nc1ccc(C(F)(F)F)cc1)N1CCC2(CC1)C(=O)N(c1ccccn1)C2c1ccccc1 (single isomer, unassigned) |  |
| 9 | 12 | CC(C)(C)c1ccc(NC(=O)N2CCC3(CC2)C(=O)N(c2ccccc2)C3c2ccccc2)cc1 (single isomer, unassigned) |  |
| 48 | 31 | CC(C)(C)C1CCC(NC(=O)N2CCC3(CC2)C(=O)N(c2ccccc2)C3c2ccccc2)CC1 (single isomer, unassigned) |  |
| 84 | 123 | CC(C)(C)C1CCC(NC(=O)N2CCC3(CC2)CN(c2ccccc2)C3=O)CC1 (single isomer, unassigned) |  |
|  |  | O=C(Nc1c(Cl)cccc1Cl)N1CCC2(CC1)C(=O)N(c1ccccc1)C2c1ccccc1 (single isomer, unassigned) [drawing 666] | Ki [3]: 1570 nM; Ki [4]: 782 nM |
|  |  | O=C(Nc1c(Cl)cccc1Cl)N1CCC2(CC1)C(=O)N(c1ccccc1)C2c1ccccc1 (single isomer, unassigned) [drawing 667] | Ki [3]: 17600 nM; Ki [4]: 18000 nM |
|  |  | O=C(Nc1cccc(C(F)(F)F)c1)N1CCC2(CC1)C(=O)N(c1ccc(F)c(Cl)c1)C2c1ccccn1 (stereo not drawn) [drawing 660] | rat VR1 % activation @ 3.3 ug/ml compound [5]: 98% |
|  |  | O=C(Nc1cccc(C(F)(F)F)c1)N1CCC2(CC1)C(=O)N(c1cncc(Cl)c1)C2c1ccccn1 (stereo not drawn) [drawing 661] | rat VR1 % activation @ 3.3 ug/ml compound [5]: 61% |
|  |  | N#Cc1cc(F)cc(NC(=O)N2CCC3(CC2)C(=O)N(c2ccc(F)c(Cl)c2)C3c2ccccn2)c1 (stereo not drawn) [drawing 662] | rat VR1 % activation @ 3.3 ug/ml compound [5]: 67% |
|  |  | N#Cc1cccc(N2C(=O)C3(CCN(C(=O)Nc4cccc(C(F)(F)F)c4)CC3)C2c2ccccn2)c1 (stereo not drawn) [drawing 663] | rat VR1 % activation @ 3.3 ug/ml compound [5]: 61% |
|  |  | O=C(Nc1cc(F)cc(F)c1)N1CCC2(CC1)C(=O)N(c1cccc(Cl)c1)C2c1cccnc1 (stereo not drawn) [drawing 664] | rat VR1 % activation @ 3.3 ug/ml compound [5]: 75% |
